Laboratory results from patent US10968203B2, “Pyrimidinyl-pyridyloxy-naphthyl compounds and methods of treating IRE1-related diseases and disorders” (Genentech, Inc., priority 2017, dated 2021).
Where a name gives a salt, the structure may show the parent alone.

Tested on: XBP1s-luc 293 LUC
Experiment: cellular PD assay, XBP1s-LUC reporter (Example 903)
Type: cell-based
Details: Table 2; read-out: XBP1s-luc 293 LUC (IC50)
Outline: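 A luciferase fusion, in frame and expressed only when the XBP1 transcript is spliced, served as the readout of cellular IRE1α activity in an XBP1-Luc reporter line.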

Row | SMILES | IC50 [nM]
1 | Cc1ccc2c(NS(=O)(=O)Cc3cscn3)c(F)ccc2c1Oc1ncccc1-c1ccnc(N[C@H]2CCCNC2)n1 [Example 402, (S)—N-(2-Fluoro-6-methyl-5-((3-(2-(piperidin-3-ylamino)pyrimidin-4-yl)pyridin-2-yl)oxy)naphthalen-1-yl)-1-(thiazol-4-yl)methanesulfonamide hydrochloride] | 51
2 | Cc1ccc2c(NS(=O)(=O)c3ccc4c(c3)OCO4)c(F)ccc2c1Oc1ncccc1-c1ccnc(N[C@H]2CCCNC2)n1 [Example 403, N-[2-Fluoro-6-methyl-5-[[3-[2-[[(3S)-3-piperidyl]amino]pyrimidin-4-yl]-2-pyridyl]oxy]-1-naphthyl]-1,3-benzodioxole-5-sulfonamide] | 44
3 | COC(C)CS(=O)(=O)Nc1c(F)ccc2c(Oc3ncccc3-c3ccnc(N[C@H]4CCCNC4)n3)c(C)ccc12 (stereo partly drawn) [Example 404, N-(2-Fluoro-6-methyl-5-((3-(2-(((S)-piperidin-3-yl)amino)pyrimidin-4-yl)pyridin-2-yl)oxy)naphthalen-1-yl)-2-methoxypropane-1-sulfonamide] | 34
4 | Cc1ccc2c(NS(=O)(=O)CC3CC3)c(F)ccc2c1Oc1ncccc1-c1ccnc(N[C@H]2CCCNC2)n1 [Example 405, (S)-1-Cyclopropyl-N-(2-fluoro-6-methyl-5-((3-(2-(piperidin-3-ylamino)pyrimidin-4-yl)pyridin-2-yl)oxy)naphthalen-1-yl)methanesulfonamide hydrochloride] | 25
5 | Cc1ccc2c(NS(=O)(=O)CCCF)c(F)ccc2c1Oc1ncccc1-c1ccnc(N[C@H]2CCCNC2)n1 [Example 406, (S)-3-Fluoro-N-(2-fluoro-6-methyl-5-((3-(2-(piperidin-3-ylamino)pyrimidin-4-yl)pyridin-2-yl)oxy)naphthalen-1-yl)propane-1-sulfonamide hydrochloride] | 31
6 | Cc1ccc2c(NC(=O)/C=C/C(F)(F)F)cccc2c1Oc1ncccc1-c1ccnc(N[C@H]2CCCNC2)n1 [Example 407, (S)-4,4,4-Trifluoro-N-(6-methyl-5-((3-(2-(piperidin-3-ylamino)pyrimidin-4-yl)pyridin-2-yl)oxy)naphthalen-1-yl)but-2-enamide] | 221
7 | Cc1ccc2c(NS(=O)(=O)N(C)Cc3ccccc3)c(F)ccc2c1Oc1ncccc1-c1ccnc(N[C@H]2CCCNC2)n1 [Example 410, 4-[2-[[5-[[Benzyl(methyl)sulfamoyl]amino]-6-fluoro-2-methyl-1-naphthyl]oxy]-3-pyridyl]-2-[[(3S)-3-piperidyl]amino]pyrimidine hydrochloride] | 87
8 | Cc1nc(CS(=O)(=O)Nc2c(F)ccc3c(Oc4ncccc4-c4ccnc(N[C@H]5CCCNC5)n4)c(C)ccc23)cs1 [Example 411, (S)—N-(2-Fluoro-6-methyl-5-((3-(2-(piperidin-3-ylamino)pyrimidin-4-yl)pyridin-2-yl)oxy)naphthalen-1-yl)-1-(2-methylthiazol-4-yl)methanesulfonamide hydrochloride] | 12
9 | Cc1cc(CS(=O)(=O)Nc2c(F)ccc3c(Oc4ncccc4-c4ccnc(N[C@H]5CCCNC5)n4)c(C)ccc23)no1 [Example 412, (S)—N-(2-Fluoro-6-methyl-5-((3-(2-(piperidin-3-ylamino)pyrimidin-4-yl)pyridin-2-yl)oxy)naphthalen-1-yl)-1-(5-methylisoxazol-3-yl)methanesulfonamide hydrochloride] | 7
10 | Cc1ccc2c(NS(=O)(=O)C=C3CCC3)c(F)ccc2c1Oc1ncccc1-c1ccnc(N[C@H]2CCCNC2)n1 [Example 413, 1-Cyclobutylidene-N-[2-fluoro-6-methyl-5-[[3-[2-[[(3S)-3-piperidyl]amino]pyrimidin-4-yl]-2-pyridyl]oxy]-1-naphthyl]methanesulfonamide hydrochloride] | 50
11 | Cc1ccc2c(NS(=O)(=O)Cc3ccc(OC(F)(F)F)cc3)c(F)ccc2c1Oc1ncccc1-c1ccnc(N[C@H]2CCCNC2)n1 [Example 419, (S)—N-(2-Fluoro-6-methyl-5-((3-(2-(piperidin-3-ylamino)pyrimidin-4-yl)pyridin-2-yl)oxy)naphthalen-1-yl)-1-(4-(trifluoromethoxy)phenyl)methanesulfonamide hydrochloride] | 129
12 | CCCN(C)S(=O)(=O)Nc1c(F)ccc2c(Oc3ncccc3-c3ccnc(N[C@H]4CCCNC4)n3)c(C)ccc12 [Example 420, 4-[2-[[6-Fluoro-2-methyl-5-[[methyl(propyl)sulfamoyl]amino]-1-naphthyl]oxy]-3-pyridyl]-2-[[(3S)-3-piperidyl]amino]pyrimidine hydrochloride] | 41
13 | CCN(C)S(=O)(=O)Nc1c(F)ccc2c(Oc3ncccc3-c3ccnc(N[C@H]4CCCNC4)n3)c(C)ccc12 [Example 421, 4-[2-[[5-[[Ethyl(methyl)sulfamoyl]amino]-6-fluoro-2-methyl-1-naphthyl]oxy]-3-pyridyl]-2-[[(3S)-3-piperidyl]amino]pyrimidine hydrochloride] | 44
14 | Cc1ccc2c(NC[C@@H](C#N)C(C)C)cccc2c1Oc1ncccc1-c1ccnc(N[C@H]2CCCNC2)n1 [Example 423, (S)-3-Methyl-2-(((6-methyl-5-((3-(2-(((S)-piperidin-3-yl)amino)pyrimidin-4-yl)pyridin-2-yl)oxy)naphthalen-1-yl)amino)methyl) butanenitrile] | 207
15 | CCCS(=O)(=O)Nc1cccc2c(Oc3ncc(OC)cc3-c3ccnc(N[C@H]4CCCNC4)n3)c(C)ccc12 [Example 424, (S)—N-(5-((5-Methoxy-3-(2-(piperidin-3-ylamino)pyrimidin-4-yl)pyridin-2-yl)oxy)-6-methylnaphthalen-1-yl)propane-1-sulfonamide hydrochloride] | 392
16 | Cc1ccc2c(NS(=O)(=O)Cc3cccc(C#N)c3)c(F)ccc2c1Oc1ncccc1-c1ccnc(N[C@H]2CCCNC2)n1 [Example 425, (S)-1-(3-Cyanophenyl)-N-(2-fluoro-6-methyl-5-((3-(2-(piperidin-3-ylamino)pyrimidin-4-yl)pyridin-2-yl)oxy)naphthalen-1-yl)methanesulfonamide hydrochloride] | 16
17 | Cc1ccc2c(NS(=O)(=O)Cc3ccc(C#N)cc3)c(F)ccc2c1Oc1ncccc1-c1ccnc(N[C@H]2CCCNC2)n1 [Example 426, (S)-1-(4-Cyanophenyl)-N-(2-fluoro-6-methyl-5-((3-(2-(piperidin-3-ylamino)pyrimidin-4-yl)pyridin-2-yl)oxy)naphthalen-1-yl)methanesulfonamide hydrochloride] | 5
18 | Cc1ccc2c(NS(=O)(=O)N(C)CC(F)(F)F)c(F)ccc2c1Oc1ncccc1-c1ccnc(N[C@H]2CCCNC2)n1 [Example 427, 4-[2-[[6-Fluoro-2-methyl-5-[[methyl(2,2,2-trifluoroethyl)sulfamoyl]amino]-1-naphthyl]oxy]-3-pyridyl]-2-[[(3S)-3-piperidyl]amino]pyrimidine hydrochloride] | 6
19 | Cc1ccc2c(NS(=O)(=O)N3CCCC3)c(F)ccc2c1Oc1ncccc1-c1ccnc(N[C@H]2CCCNC2)n1 [Example 428, N-[2-Fluoro-6-methyl-5-[[3-[2-[[(3S)-3-piperidyl]amino]pyrimidin-4-yl]-2-pyridyl]oxy]-1-naphthyl]pyrrolidine-1-sulfonamide hydrochloride] | 28
20 | COc1cccc(CS(=O)(=O)Nc2c(F)ccc3c(Oc4ncccc4-c4ccnc(N[C@H]5CCCNC5)n4)c(C)ccc23)c1 [Example 429, (S)—N-(2-Fluoro-6-methyl-5-((3-(2-(piperidin-3-ylamino)pyrimidin-4-yl)pyridin-2-yl)oxy)naphthalen-1-yl)-1-(3-methoxyphenyl)methanesulfonamide hydrochloride] | 5
21 | COCCCNc1cccc2c(Oc3ncccc3-c3ccnc(N[C@H]4CCCNC4)n3)c(C)ccc12 [Example 430, 4-[2-[[5-(3-Methoxypropylamino)-2-methyl-1-naphthyl]oxy]-3-pyridyl]-N-[(3S)-3-piperidyl]pyrimidin-2-amine hydrochloride] | 275
22 | COCCS(=O)(=O)Nc1c(F)ccc2c(Oc3ncccc3-c3ccnc(N[C@@H]4CNC[C@H](C)C4)n3)c(C)ccc12 [Example 431, N-[2-Fluoro-6-methyl-5-[[3-[2-[[(3S,5R)-5-methyl-3-piperidyl]amino]pyrimidin-4-yl]-2-pyridyl]oxy]-1-naphthyl]-2-methoxy-ethanesulfonamide hydrochloride] | 34
23 | Cc1ccc2c(NS(=O)(=O)CC3CC(F)(F)C3)c(F)ccc2c1Oc1ncccc1-c1ccnc(N[C@H]2CCCNC2)n1 [Example 433, (S)-1-(3,3-Difluorocyclobutyl)-N-(2-fluoro-6-methyl-5-((3-(2-(piperidin-3-ylamino)pyrimidin-4-yl)pyridin-2-yl)oxy)naphthalen-1-yl)methanesulfonamide] | 76
24 | Cc1ccc2c(NS(=O)(=O)Cc3ccccc3C#N)c(F)ccc2c1Oc1ncccc1-c1ccnc(N[C@H]2CCCNC2)n1 [Example 434, (S)-1-(2-Cyanophenyl)-N-(2-fluoro-6-methyl-5-((3-(2-(piperidin-3-ylamino)pyrimidin-4-yl)pyridin-2-yl)oxy)naphthalen-1-yl)methanesulfonamide hydrochloride] | 6
25 | COc1c(Cl)cccc1CS(=O)(=O)Nc1c(F)ccc2c(Oc3ncccc3-c3ccnc(N[C@H]4CCCNC4)n3)c(C)ccc12 [Example 437, (S)-1-(3-Chloro-2-methoxyphenyl)-N-(2-fluoro-6-methyl-5-((3-(2-(piperidin-3-ylamino)pyrimidin-4-yl)pyridin-2-yl)oxy)naphthalen-1-yl)methanesulfonamide hydrochloride] | 18
26 | Cc1ccc2c(NS(=O)(=O)Cc3ccc(C(F)F)cc3)c(F)ccc2c1Oc1ncccc1-c1ccnc(N[C@H]2CCCNC2)n1 [Example 438, (S)-1-(4-(Difluoromethyl)phenyl)-N-(2-fluoro-6-methyl-5-((3-(2-(piperidin-3-ylamino)pyrimidin-4-yl)pyridin-2-yl)oxy)naphthalen-1-yl)methanesulfonamide hydrochloride] | 5
